Series [1] has as its system KhES1 cells. As to the kind of experiment: In vitro cytotoxic effects of suicide genes plus drug, viable cell count. The format is cell-based, human. As to conditions: high-concentration AZT. Here is the method:
The total amount of the resulting product was administered. The medium was renewed 24 hours later. […] Then, 10 μL of the cells were collected.

Another series concerns Jurkat cells. As to the kind of experiment: AZT sensitivity of sorted cells constitutively expressing human-tmpk versus non-infected cells (NC). The format is cell-based. As to conditions: AZT at high concentrations. The procedure: (§1) In addition, regarding human-tmpk, after infection with a lentiviral vector, a similar experiment was conducted using sorted cells permanently-expressing the gene based on specificity to CD19.
(§2) Starting from the following day, AZT was administered at 0, 0.1, 1, 10, 100, and 1000 μM to each well for 3 days, and the number of viable cells was counted by the method described above.

Series [2] deals with MKN45 cells. Described as above. The format is cell-based. The note with it: AZT at high concentrations. Here is the method: as §1, §2
Series [3] relates to MKN45 cells. As to the kind of experiment: In vitro cytotoxic effects of suicide genes plus drug, viable cell count. As to conditions: high concentration AZT.
Protocol: In order to evaluate cytotoxicity of suicide genes in cells of each type, HSV-tk, human-tmpk, and iCaspase9 were introduced into cells, and cell killing effects were examined and compared with the addition of drugs. […] For human-tmpk and iCasp9, plasmids were introduced into cells. Cells of each type described below were seeded on a 24-well plate at the corresponding number of cells. • KhES1 cells: 4×10^4 cells/well • MKN45 cells: 2×10^4 cells/well (only tmpk iCasp9) • BJ cells: 1×10^4 cells/well
On the following day, infection with Ad.CAG-HSV-tk at MOI=10 was performed, the medium was renewed 24 hours later, and then 10 μL of GCV (10 μg/mL) was administered for 4 days. For human-tmpk and iCasp9, 0.5 μg of each plasmid was added to 25 μL of OPTI-MEM, and 2 μL of FUGENE HD (QIAGEN) was added, followed by vortexing and stationary placement of 15 minutes. The total amount of the resulting product was administered. The medium was renewed 24 hours later. Then, AZT was administered at 0, 30, 100, and 300 μM to each well of human-tmpk-transfected cells for 3 days. For iCasp3, Dimerizer was administered at 0, 0.03, 0.1, and 0.3 μM to each well for 3 days. After drug administration, cytotoxic effects were determined by counting the number of viable cells. […] Trypan blue (10 μL) was added to each collected cell suspension and the number of viable cells was counted.
Series [4] deals with mouse ES/iPS cells or human ES/iPS cells. The note with it: cells subcutaneously transplanted; Non-Patent Documents 7 and 8; cited from earlier work.
Series [5] has as its system KhES1 cells after differentiation induction treatment. As to the kind of experiment: Safety upon in vitro GCV administration to differentiated cells.
Protocol: Analysis was conducted using the above sorted KhES1 cells to confirm safety upon GCV administration after differentiation induction. For differentiation induction, cells were seeded on a 96-well low adhesive plate containing ES medium (excluding LIF) at 3×10^3 cells per well. Culture was performed for one week so that an embryonic body was formed. Thereafter, subculture on a gelatin-coated dish was continued for 28 days or more so that sufficiently differentiated cells were produced. Cells subjected to differentiation induction were re-seeded on a 96-well plate at 1×10^5 cells per well. Starting from the following day, GCV was administered at 0, 0.01, 0.1, 1, 10, and 100 μg/mL to the groups of survivin-Venus-2A-HSV-tk (A), CAG-Venus-2A-HSV-tk (B), survivin-Venus-2A-puromycin lacking HSV-tk (C), and non-infected cells (NC)(D) for 4 days.
The test system of series [6] is KhES1 cells. Nature of the series: In vitro toxicity of GCV on undifferentiated lentivirus-infected cells.
Protocol: Cells were infected with the vectors. The infected cells (GFP-positive cells) were sorted using FACS ARIA II (BD).
In the case of KhES 1, KhES 1 cells were cultured overnight in medium containing 10 μM Y27632, treated with CTK, and dispersed into separate cells. The number of cells was counted, a necessary amount of cells were centrifuged (1000 rpm, 5 minutes), and resuspended in 10 μM Y27632-containing PBS. Alexa Fluor 488 anti-Human SSEA4 (BIOLEGEND) serving as an antibody for labeling undifferentiated cells (5 μL) was added to 100 μL of a cell suspension (1×10^6 cells), cells were suspended on ice for every 10 minutes during stationary placement for 30 minutes for labeling of the cells. The cells were washed once with 10 μM Y27632-containing PBS, suspended in 10 μM Y27632-containing ES medium, and then GFP-positive cells labeled with the antibody were evaluated as undifferentiated lentivirus-infected KhES 1 cells using a flow cytometer.
Cytotoxic effects after GCV administration were analyzed using the above sorted KhES1 cells and D3 cells. KhES1 cells were seeded on a 96-well plate at 1×10^5 cells per well. […] Cytotoxic effects after 4-day administration were determined by WST-8 assay, which is modified MTT assay. […] Absorbance of this formazan at 450 nm was directly measured, thereby determining the number of viable cells (E).
For series [7] the following is noted: tmpk with minimum gene modification; cited from earlier work.

Regarding `Cc1cn([C@H]2C[C@H](N=[N+]=[N-])[C@@H](CO)O2)c(=O)[nH]c1=O` [AZT, 3′-azido-3′-deoxythymidine], the “cell damage in cells not transfected with human-tmpk” value in the series on KhES1 cells [1] was “cell damage was observed even in cells not transfected with human-tmpk”; in the series with Jurkat cells it was “cell damage was observed even in cells not transfected with human-tmpk”; with MKN45 cells [3], “Cell damage was observed even in cells not transfected with human-tmpk”. Besides, in the series with MKN45 cells [2], the “cell damage in cells not infected with human-tmpk” value is given as “cell damage was induced at high concentrations even in cells not infected with human-tmpk”.
Turning to `Nc1nc(O)c2ncn(COC(CO)CO)c2n1` [GCV, ganciclovir], the “tumor reduction by GCV administration” value in series [4] is on record as “tumors can be reduced by GCV administration”. The “cytotoxicity in non-infected cells (NC) after differentiation” value in series [5] (GCV 0 to 100 μg/mL for 4 days) is recorded as “No cytotoxicity was observed”. For the same molecule, the “non-specific cell killing effects in differentiated cells” value in series [5] (GCV at 10 μg/mL or more, compared with undifferentiated cells) was “Non-specific cell killing effects were not observed”. Also, the “specificity of GCV toxicity” value in series [5] (undifferentiated versus differentiated KhES1 cells, with or without HSV-tk) is recorded as “exhibits toxicity only in undifferentiated cells under the presence of HSV-tk”. In addition, the “cytotoxic effects in non-infected cells (NC)” value in the series with KhES1 cells [6] (GCV 1 μg/mL) is recorded as “cytotoxic effects were not observed”. Also, the HSV-tk-non-specific cytotoxicity result in the series on KhES1 cells [6] (GCV concentration of 10 μg/mL or more) is recorded as “HSV-tk-non-specific cytotoxicity was observed”.

B1: tmpk (F105Y): genetically improved human thymidylate kinase used as suicide gene (protein, UniProt P23919 2-212, looked up, variant F105Y)
Thymidylate kinase: AARRGALIVLEGVDRAGKSTQSRKLVEALCAAGHRAELLRFPERSTEIGKLLSSYLQKKSDVEDHSVHLLFSANRWEQVPLIKEKLSQGVTLVVDRYAFSGVAYTGAKENFSLDWCKQPDVGLPKPDLVLFLQLQLADAAKRGAFGHERYENGAFQERALRCFHQLMKDTTLNWKMVDASKSIEAVHEDIRVLSEDAIRTATEKPLGELWK
Regarding B1, the “increased action on AZT-MP” value in series [7] is reported as 200 fold.

Values taken from patent US20170051306A1, “NOVEL METHOD FOR LABELLING CANCERIZATION-CAUSING CELL IN STEM CELLS, AND THERAPY METHOD” (KAGOSHIMA UNIVERSITY, priority 2014, published 2017).
